{"source": "patent US20040259934A1", "about": "“Inhibiting Coronaviridae viral replication and treating Coronaviridae viral infection with nucleoside compounds” (priority 2003, published 2004)", "key": {"[1]": {"test_system": "Human coronavirus OC43", "assay": "Cytopathic effect (CPE) inhibition assay against a coronavirus", "type": "cell-based", "conditions": "Betacoronavirus 1, OC43 / SC1, BSC-1, 144 h", "description": "(§1) The assays employed to measure activity against coronavirus are described below (wherein CPE=cytopathic effect; FBS=fetal bovine serum; MEM=minimal essential medium; MOI=multiplicity of infection; and NR=neutral red):\n(§2) Human coronavirus OC43 was obtained from the American Type Culture Collection (ATCC, Manassas, Va., USA). This virus was originally isolated from the tracheal washings of a person with cold-like symptoms.\n(§3) B-SC-1 cells propagated from adult African green kidney cells were grown in MEM supplemented with 0.1% NaHCO3 and 10% FBS. When performing antiviral assays, serum was reduced to 2% and 50 μg/mL gentamicin was added to the medium.\nEach compound was diluted in MEM using a four log dilution series (i.e., 100, 10, 1.0, 0.1 μg/ml) and 100 μL added to the appropriate wells of a 96 well cell culture plate with confluent cells (see plate format below). The coronavirus was diluted in MEM 2% FBS to an MOI=0.001 in a volume of 100 μL and added immediately to plate (usually within 5 minutes of drug addition). […] The plates were then scored for virus cytopathic effect at each dilution of compound tested. The 50% effective concentration (EC50) was calculated by regression analysis using the means of the CPE ratings at each concentration of compound."}, "[2]": {"test_system": "Human coronavirus OC43", "assay": "Neutral red uptake assay against a coronavirus", "type": "cell-based", "conditions": "Betacoronavirus 1, OC43 / SC1, BSC-1", "description": "as §1, §2, §3\nAfter performing the CPE inhibition assay above, an additional cytopathic detection method was used, in which medium was removed from each well of a plate scored for CPE from a CPE inhibition assay, 0.034% NR was added to each well of the plate and the plate incubated for 2 hr at 37° C. in the dark. The NR solution was then removed from the wells. After rinsing and aspirating to dryness, the remaining dye was extracted for 30 min at room temperature in the dark from the cells using absolute ethanol buffered with Sörenson citrate buffer. […] Absorbances at 540 nm and 450 nm were read with a microplate reader (Bio-Tek EL 1309; Bio-Tek Instruments, Inc., Winooski, Vt.). Absorbance values were expressed as percentages of untreated controls and EC50 and IC50 values were calculated by regression analysis."}}, "data": [{"compound": "C[C@@]1(O)[C@H](O)[C@@H](CO)O[C@H]1n1ccc(N)nc1=O", "note": "[2′-C-methylcytidine]", "values": [{"measurement": "EC50", "setting": "[1]", "result": "< 100", "unit": "µM"}, {"measurement": "EC50", "setting": "[2]", "result": "≤ 10", "unit": "µM"}]}, {"compound": "C[C@@]1(O)[C@H](O)[C@@H](CO)O[C@H]1n1cnc2c(N)ncnc21", "note": "[2′-C-methyladenosine]", "values": [{"measurement": "EC50", "setting": "[1]", "result": "< 100", "unit": "µM"}, {"measurement": "EC50", "setting": "[2]", "result": "≤ 10", "unit": "µM"}]}, {"compound": "C[C@@]1(O)[C@H](O)[C@@H](CO)O[C@H]1n1ccc2c(N)ncnc21", "note": "[Example 1, 4-Amino-7-(2-C-methyl-β-D-ribofuranosyl)-7H-pyrrolo[2,3-d]pyrimidine]", "values": [{"measurement": "EC50", "setting": "[1]", "result": "< 100", "unit": "µM"}, {"measurement": "EC50", "setting": "[2]", "result": "≤ 10", "unit": "µM"}]}]}
